Values quoted from earlier work, collected in patent publication US8697862B2, “Synthesis of galactoside inhibitors” (Galecto Biotech AB, priority 2008, dated 2014).

Test system: galectins

Row | Kd (all galectins) [µM] | Structure (SMILES) | affinity, times lower than lactose (relative to lactose)
1 |  | O=C[C@H](O)[C@@H](O)[C@@H](O)[C@H](O)CO [D-galactose] | 50-100 times
2 | 500 to 1000 | OC[C@H]1O[C@@H](O[C@H]2[C@H](O)[C@@H](O)C(O)O[C@@H]2CO)[C@H](O)[C@@H](O)[C@H]1O (some centres unmarked) [lactose] | 
